Laboratory results taken from ChEMBL document CHEMBL4265882, “Tetrahydroquinoline and tetrahydroisoquinoline derivatives as potential selective PDE4B inhibitors” (Bioorg Med Chem Lett, 2018).

Key:
[1] = Inhibition of PDE4 in human PBMC assessed as reduction in LPS-stimulated TNFalpha release preincubated for 30 mins followed by LPS stimulation for 18 hrs by TR-FRET assay; type: cell-based
[2] = target: 3',5'-cyclic-AMP phosphodiesterase 4D (Homo sapiens, UniProt Q08499); assay: Inhibition of human U937 cells-derived PDE4D using [3H]-cAMP as substrate after 30 mins
Homo sapiens = organism: Homo sapiens; assay: Selectivity index, ratio of IC50 for human U937 cells-derived PDE4D to IC50 for human U937 cells-derived PDE4B
[3] = target: 3',5'-cyclic-AMP phosphodiesterase 4B (Homo sapiens, UniProt Q07343); assay: Inhibition of human U937 cells-derived PDE4B using [3H]-cAMP as substrate after 30 mins
Mus musculus = assay: Anti-inflammatory activity in Swiss albino mouse model of sepsis assessed as inhibition of LPS-induced TNFalpha release at 10 mg/kg, po administered 30 mins prior to LPS challenge for 90 mins by ELISA relative to control; type: functional
Rattus norvegicus = assay: Anti-inflammatory activity in Sprague-Dawley rat model of LPS-induced asthma/COPD assessed as inhibition of neutrophilia in BALF at 10 mg/kg, po administered 30 mins prior to LPS challenge for 40 mins and measured after 6 hrs relative to control; type: functional

3',5'-cyclic-AMP phosphodiesterase 4B, sequence (Q07343 whole entry): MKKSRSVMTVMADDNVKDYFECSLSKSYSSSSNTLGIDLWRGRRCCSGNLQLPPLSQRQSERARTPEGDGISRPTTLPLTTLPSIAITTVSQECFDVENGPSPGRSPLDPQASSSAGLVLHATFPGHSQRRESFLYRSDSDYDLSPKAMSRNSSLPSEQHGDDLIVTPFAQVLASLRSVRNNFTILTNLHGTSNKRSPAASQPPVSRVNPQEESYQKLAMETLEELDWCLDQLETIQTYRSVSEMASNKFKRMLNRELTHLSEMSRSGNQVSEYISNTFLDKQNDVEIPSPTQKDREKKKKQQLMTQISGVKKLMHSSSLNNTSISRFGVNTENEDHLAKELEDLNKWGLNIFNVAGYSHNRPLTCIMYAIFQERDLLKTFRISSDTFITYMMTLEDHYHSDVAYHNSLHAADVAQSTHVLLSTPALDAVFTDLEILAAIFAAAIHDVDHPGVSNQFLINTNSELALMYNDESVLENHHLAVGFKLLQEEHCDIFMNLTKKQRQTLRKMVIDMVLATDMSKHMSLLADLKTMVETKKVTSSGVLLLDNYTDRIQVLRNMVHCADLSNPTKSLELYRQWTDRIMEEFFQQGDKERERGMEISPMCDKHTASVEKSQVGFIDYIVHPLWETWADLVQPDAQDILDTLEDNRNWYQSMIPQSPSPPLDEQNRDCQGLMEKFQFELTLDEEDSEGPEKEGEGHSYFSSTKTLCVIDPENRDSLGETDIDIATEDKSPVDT
3',5'-cyclic-AMP phosphodiesterase 4D, sequence (Q08499 whole entry): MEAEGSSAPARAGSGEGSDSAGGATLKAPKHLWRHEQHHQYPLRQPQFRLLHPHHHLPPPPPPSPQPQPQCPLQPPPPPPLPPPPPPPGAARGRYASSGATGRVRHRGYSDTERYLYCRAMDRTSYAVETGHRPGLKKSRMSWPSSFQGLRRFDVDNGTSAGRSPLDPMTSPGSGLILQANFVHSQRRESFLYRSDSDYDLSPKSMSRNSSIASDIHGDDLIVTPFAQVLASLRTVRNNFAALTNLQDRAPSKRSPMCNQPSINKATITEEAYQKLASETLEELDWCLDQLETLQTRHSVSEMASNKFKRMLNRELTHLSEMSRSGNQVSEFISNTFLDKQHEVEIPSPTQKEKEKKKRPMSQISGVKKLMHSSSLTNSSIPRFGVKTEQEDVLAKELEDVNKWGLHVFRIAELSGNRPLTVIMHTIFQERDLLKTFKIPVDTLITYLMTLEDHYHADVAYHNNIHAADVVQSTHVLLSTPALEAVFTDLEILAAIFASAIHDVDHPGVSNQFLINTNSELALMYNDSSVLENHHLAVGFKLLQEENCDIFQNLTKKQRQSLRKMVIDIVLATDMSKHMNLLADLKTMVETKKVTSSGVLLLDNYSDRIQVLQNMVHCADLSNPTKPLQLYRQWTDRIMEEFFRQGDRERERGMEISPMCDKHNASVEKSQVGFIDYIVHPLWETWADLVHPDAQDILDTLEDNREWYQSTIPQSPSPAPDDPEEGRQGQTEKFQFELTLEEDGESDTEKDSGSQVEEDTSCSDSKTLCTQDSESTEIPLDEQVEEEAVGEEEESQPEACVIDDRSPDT

| Structure (SMILES) | IC50 [1] [µM] | IC50 [2] [µM] | Ratio IC50 (Homo sapiens) | IC50 [3] [µM] | inhibition in vivo at 10 mg/kg (Mus musculus) [%] | inhibition in vivo at 10 mg/kg (Rattus norvegicus) [%] |
| --- | --- | --- | --- | --- | --- | --- |
| O=C(c1ccc(-c2c(F)cccc2F)o1)N1CCCc2ccccc21 | 89.3 | 81.3 | 5.34 | 15.2 |  |  |
| O=C(c1ccc(-c2ccc(Cl)cc2)o1)N1CCc2ccccc2C1 | 28.6 | 25.2 | 6.14 | 4.1 |  |  |
| O=C(c1ccc(-c2ccc(F)cc2F)o1)N1CCCc2ccccc21 | 16.2 | 15.6 | 6 | 2.6 | 39.6 | 34.1 |
| O=C(c1ccc(-c2c(F)cccc2F)o1)N1CCc2ccccc2C1 | 91.9 | 89.2 | 4.21 | 17.1 |  |  |
| O=C(c1ccc(-c2ccc(F)cc2)o1)N1CCc2ccccc2C1 | 27.2 | 49.3 | 6.66 | 7.4 |  |  |
| COc1ccc(-c2ccc(C(=O)N3CCCc4ccccc43)o2)cc1 | 11.8 | 10.3 | 6.86 | 1.5 | 46.8 | 40.1 |
| O=C(c1ccc(-c2cccc(F)c2)o1)N1CCCc2ccccc21 | 64.3 |  |  | 22.2 |  |  |
| O=C(c1ccc(-c2ccccc2Cl)o1)N1CCc2ccccc2C1 | 121 |  |  | 51.6 |  |  |
| Cc1ccc(-c2ccc(C(=O)N3CCc4ccccc4C3)o2)cc1 | 44.1 | 56.8 | 6.04 | 9.4 |  |  |
| COc1ccc(C2CNC(=O)C2)cc1OC1CCCC1 (stereo unspecified) [ROLIPRAM] | 18.9 |  |  |  | 42.9 | 34.2 |
| O=C(c1ccc(-c2cccc(F)c2)o1)N1CCc2ccccc2C1 | 78.1 |  |  | 25.7 |  |  |
| O=C(c1ccc(-c2ccc(F)cc2F)o1)N1CCc2ccccc2C1 | 17.1 | 18.1 | 6.03 | 3 | 30.8 | 29.5 |
| O=C(c1ccc(-c2ccccc2[N+](=O)[O-])o1)N1CCc2ccccc2C1 | 151 |  |  | 66.3 |  |  |
| O=C(c1ccc(-c2ccc(Br)cc2)o1)N1CCc2ccccc2C1 | 156 |  |  | 58.4 |  |  |
| O=C(c1ccc(-c2ccccc2)o1)N1CCCc2ccccc21 | 142 |  |  | 70.9 |  |  |
| COc1ccc(-c2ccc(C(=O)N3CCc4ccccc4C3)o2)cc1 | 13.6 | 10.2 | 3.92 | 2.6 | 39.2 | 32.7 |

| Structure (SMILES) | IC50 [1] [µM] | IC50 [2] [µM] | Ratio IC50 (Homo sapiens) | IC50 [3] [µM] | inhibition in vivo at 10 mg/kg (Mus musculus) [%] | inhibition in vivo at 10 mg/kg (Rattus norvegicus) [%] |
| --- | --- | --- | --- | --- | --- | --- |
| O=C(c1ccc(-c2ccccc2F)o1)N1CCc2ccccc2C1 | 95.4 |  |  | 46.1 |  |  |
| O=C(c1ccc(-c2ccc(F)cc2)o1)N1CCCc2ccccc21 | 22.1 | 40.3 | 6.6 | 6.1 |  |  |
| O=C(c1ccc(-c2cccc([N+](=O)[O-])c2)o1)N1CCc2ccccc2C1 | 72.5 |  |  | 39.9 |  |  |
| Cc1ccc(-c2ccc(C(=O)N3CCCc4ccccc43)o2)cc1 | 35.2 | 50.1 | 5.33 | 9.4 |  |  |
| O=C(c1ccc(-c2cccc(Cl)c2)o1)N1CCCc2ccccc21 | 62.5 | 96.8 | 5.12 | 18.9 |  |  |
| O=C(c1ccc(-c2ccc(Cl)cc2)o1)N1CCCc2ccccc21 | 27.2 | 21.3 | 6.09 | 3.5 |  |  |
| O=C(c1ccc(-c2ccccc2Cl)o1)N1CCCc2ccccc21 | 101 |  |  | 41.6 |  |  |
| O=C(c1ccc(-c2ccc([N+](=O)[O-])cc2)o1)N1CCCc2ccccc21 | 46.8 | 77.2 | 6.38 | 12.1 |  |  |
| O=C(c1ccc(-c2ccc([N+](=O)[O-])cc2)o1)N1CCc2ccccc2C1 | 46.3 | 88.3 | 5.39 | 15.8 |  |  |
| O=C(c1ccc(-c2ccccc2F)o1)N1CCCc2ccccc21 | 92.8 |  |  | 50.3 |  |  |
| O=C(c1ccc(-c2cccc(Cl)c2)o1)N1CCc2ccccc2C1 | 57.1 |  |  | 21.1 |  |  |
| O=C(c1ccc(-c2cccc([N+](=O)[O-])c2)o1)N1CCCc2ccccc21 | 62.3 |  |  | 30.9 |  |  |
| O=C(c1ccc(-c2ccc(Br)cc2)o1)N1CCCc2ccccc21 | 131 |  |  | 46.8 |  |  |
| O=C(c1ccc(-c2ccccc2[N+](=O)[O-])o1)N1CCCc2ccccc21 | 128 |  |  | 66.9 |  |  |
| O=C(c1ccc(-c2ccccc2)o1)N1CCc2ccccc2C1 | 188 |  |  | 79.6 |  |  |
